# Reference: patent publication US6022879A, “Bathocuproine treatment of neurologic disease” (priority 1998, dated 2000)
# Columns and labels:
# [1] = target: T1, human Cu,Zn superoxide dismutase (SOD), site-directed mutant D124N (Asp124 to Asn, model zinc-deficient SOD) (Homo sapiens, UniProt P00441, D125N); test: Reduction of enzyme-bound copper of SOD by a reductant, monitored spectrally at 680 nm (stopped-flow for ascorbate); format: biochemical
# T1 construct: made in house; host or cells: E. coli
# Method: To circumvent this problem, a site-directed human SOD mutant was prepared wherein aspartate124 was changed to asparagine (D124N).
# (§1) SODs were present at a subunit concentration of 0.43 mM in 0.5 ml of 0.1 mM Kpi, pH 7.4 at 37 degrees C. Ascorbate (0.5 mM) was added at time zero and reduction was monitored spectrally at 680 nm for 1 hr.
# (§2) SODs were present at a subunit concentration of 0.43 mM in 0.5 ml of 0.1 mM Kpi, pH 7.4 at 37 degrees C. H2 O2 (0.4 mM) was added at time zero and reduction was monitored spectrally at 680 nm for 5 minutes.
# (§3) For more than two years the notion that FALS SODs could act as peroxidases and generate hydroxyl radical has been a subject of debate. However, H2 O2 can rapidly reduce Cu,Zn SOD and generate superoxide as a byproduct. (It is the addition of a second molecule of H2 O2 to give --OH that is extremely slow and of questionable significance). […] For example, it is possible to assess superoxide production from reduced SOD using the tetranitromethane (TNM) capture assay described by Hodgson and Fridovich (7).
# [2] = target: T2, human Cu,Zn superoxide dismutase (SOD), FALS mutant A4V (Homo sapiens, UniProt P00441, A5V); test: Reduction of enzyme-bound copper of SOD by a reductant, monitored spectrally at 680 nm; format: biochemical; details: Kpi pH 7.4, 37 degrees C
# T2 construct: made in house; host or cells: E. coli BL21(DE3) plysS, pET-3d
# Method: as §1, §2, §3
# [3] = target: T3, human Cu,Zn superoxide dismutase (SOD), FALS mutant G93A (Homo sapiens, UniProt P00441, G94A); test: as above; format: biochemical; details: Kpi pH 7.4, 37 degrees C
# T3 construct: made in house; host or cells: E. coli BL21(DE3) plysS, pET-3d
# Method: as §1, §2, §3
# [4] = target: T4, human Cu,Zn superoxide dismutase (SOD), FALS mutant D90A (Homo sapiens, UniProt P00441, D91A); test: as above; format: biochemical; details: Kpi pH 7.4, 37 degrees C
# T4 construct: made in house; host or cells: E. coli BL21(DE3) plysS, pET-3d
# Method: as §1, §2, §3
# [5] = target: T5, human Cu,Zn superoxide dismutase (SOD), wild type (Homo sapiens, UniProt P00441); test: as above; format: biochemical; details: Kpi pH 7.4, 37 degrees C
# T5 construct: made in house; host or cells: E. coli
# Method: as §1, §2, §3
# [6] = test system: G93A transgenic mice (overexpress human G93A ALS SOD mutant); test: Bathocuproine in ALS SOD transgenic mice: onset and progression of paralysis; format: in vivo, mouse; details: intraperitoneal in soybean oil, daily 0.51 mg/100 g body weight, from 190 day old G93A mice
# Method: Neither the overall efficiency nor the kinetics of Cu+1 removal was altered by sulfonic acid substituents on the ring(s) of the parent bathocuproine compound. Thus, the sulfonic acid groups serve mainly to increase water solubility and are not fundamental to copper binding activity. The unsubstituted parent compound, bathocuproine, is very lipid soluble and much more likely to cross the blood-brain barrier. In G93A transgenic mice, bathocuproine was dissolved in soybean oil and injected intraperitoneally at a daily dose of 0.51 mg/100 g body weight. Assuming uniform tissue distribution and fluid fraction equal to 0.7 of the mouse's body weight, this dose should give a cellular concentration of 20 µM or roughly a 4-fold molar excess over SOD protein concentration. […] After onset, paralysis progresses rapidly up the trunk and is ultimately fatal within about 14 days. Bathocuproine injections is initiated in 190 day old mice and the mice are observed for onset and progression of paralysis relative to untreated littermates. […] A group of non-transgenic mice are also injected to control for potential toxicities from bathocuproine itself.
# [7] = 0.4 mM H2O2, SOD subunit 0.43 mM, 5 minutes
# [8] = 0.5 mM ascorbate, SOD subunit 0.43 mM, 1 hr
# T1 sequence (P00441 whole entry D125N): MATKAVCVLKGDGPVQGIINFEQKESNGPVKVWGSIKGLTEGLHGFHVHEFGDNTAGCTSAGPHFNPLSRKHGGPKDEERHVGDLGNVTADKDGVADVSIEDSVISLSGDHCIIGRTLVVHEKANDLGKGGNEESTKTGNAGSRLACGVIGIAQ
# T4 sequence (P00441 whole entry D91A): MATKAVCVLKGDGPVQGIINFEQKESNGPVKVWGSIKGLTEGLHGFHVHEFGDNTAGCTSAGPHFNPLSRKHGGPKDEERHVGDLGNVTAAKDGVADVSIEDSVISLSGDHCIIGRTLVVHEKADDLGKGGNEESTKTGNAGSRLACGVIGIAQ
# T3 sequence (P00441 whole entry G94A): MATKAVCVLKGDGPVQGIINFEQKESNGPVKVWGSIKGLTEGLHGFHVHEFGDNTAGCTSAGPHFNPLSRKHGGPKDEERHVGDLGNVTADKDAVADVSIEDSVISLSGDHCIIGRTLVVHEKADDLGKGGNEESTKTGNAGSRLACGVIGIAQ
# T5 sequence (P00441 whole entry): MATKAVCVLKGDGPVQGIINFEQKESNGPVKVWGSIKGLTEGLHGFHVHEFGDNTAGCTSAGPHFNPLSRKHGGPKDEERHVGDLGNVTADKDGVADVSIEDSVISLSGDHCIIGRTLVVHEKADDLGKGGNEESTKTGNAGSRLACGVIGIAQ
# T2 sequence (P00441 whole entry A5V): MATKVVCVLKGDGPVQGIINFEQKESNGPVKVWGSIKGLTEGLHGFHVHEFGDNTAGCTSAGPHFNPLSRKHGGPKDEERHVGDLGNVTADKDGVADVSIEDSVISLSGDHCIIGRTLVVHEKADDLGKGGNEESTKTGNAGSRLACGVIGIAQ
compound,measurement,setting,value
"OO [H2 O2, hydrogen peroxide]",t1/2 for reduction by H2 O2,"[1]; 0.4 mM H2O2, SOD subunit 0.43 mM, Kpi pH 7.4, 37 degrees C, 680 nm, 5 minutes",26.7 s
same,t1/2 for reduction by H2 O2,[2]; [7],21.2 s
same,t1/2 for reduction by H2 O2,[3]; [7],24.2 s
same,t1/2 for reduction by H2 O2,[4]; [7],30.9 s
same,t1/2 for reduction by H2 O2,[5]; [7],30.5 s
"O=C1O[C@H]([C@@H](O)CO)C(O)=C1O [ascorbate, ascorbic acid]",rate of ascorbate-mediated reduction relative to wild-type SOD,"[1]; 0.5 mM ascorbate, D124N versus wild-type",~200 fold
same,t1/2 for reduction of SOD copper by ascorbate,"[1]; 0.5 mM ascorbate, SOD subunit 0.43 mM, Kpi pH 7.4, 37 degrees C, stopped-flow spectroscopy",8.9 s
same,t1/2 for reduction of SOD copper by ascorbate,[2]; [8],1550 s
same,t1/2 for reduction of ascorbate,[3]; [8],1240 s
same,t1/2 for reduction of ascorbate,[4]; [8],1770 s
same,t1/2 for reduction by ascorbate,"[5]; 0.5 mM ascorbate, SOD subunit 0.43 mM",1700 s
Cc1cc(-c2ccccc2)c2ccc3c(-c4ccccc4)cc(C)nc3c2n1 [bathocuproine],onset and progression of paralysis relative to untreated littermates,[6],delay of onset or slowing of progression is shown
